Test results published in paper PMC9354243, “The Role of Tryptophan in π Interactions in Proteins: An Experimental Approach” (Journal of the American Chemical Society, 2022).

Key:
LmrR = target: LmrR; set-up: method as in Takeuchi et al. (SI ref 3, main ref 21); settings: 25 °C, SPR, ref Takeuchi et al. (SI ref 3, main ref 21); cited from earlier work
LmrR variants = test: SPR of the LmrR-Dau interaction at 10 and 25 °C, all LmrR variants; type: binding, Lactococcus lactis
Description: The thermodynamics of the LmrR–Dau interaction was recently reported to be mostly entropy driven.[21] To investigate this point in more detail the temperature dependence of the LmrR–Dau interaction was studied by surface plasmon resonance (SPR) experiments at 10 and 25 °C. […] The average ΔΔG from 6 LmrR variants is around 0.1 kJ/mol. These values imply that the temperature effects on the ΔGs are negligible, which would be in line with a low contribution of entropic factors to the Dau–LmrR interaction.
RibU. […]
MALDI-TOF. […] Spots were measured using a Voyager DE-PRO MALDI-TOF (time of flight) instrument (Applied Biosystems). The incorporation efficiency of Trp analog was calculated after measuring the peak areas of the peptide conta ining either Trp or Trp analog.
Binding assays - surface plasmon resonance (SPR). LmrR and mutants were immobilized on a CM5 sensor chip and binding of drugs was monitored using a BIACORE3000 system. The binding responses of Dau and RBF to LmrR were measured in triplicate at both 25 °C and 10 °C, in HBS-EP running buffer (10 mM HEPES, pH 7.4, 150 mM NaCl, 50 µM EDTA, and 0.005% surfactant P-20). The binding responses were corrected by subtracting the response measured in the control lane, to which a […]

SMILES: COc1cccc2c1C(=O)c1c(O)c3c(c(O)c1C2=O)C[C@@](O)(C(C)=O)C[C@@H]3O[C@H]1C[C@H](N)[C@H](O)[C@H](C)O1 [Dau, Daunomycin]
- Kd (LmrR): 0.35 µM
- Fold increase of binding affinity at lower temperature (LmrR variants; 10 °C versus 25 °C, all LmrR variants): 1.4–3.5 fold
- Average ΔΔG (ΔG10 °C – ΔG25 °C) (LmrR variants; average from 6 LmrR variants): around 0.1 kJ/mol
